Data on three compounds can be found in patent US5215916A, “Super glucocorticoid receptors: receptors with increased affinity and specificity for glucocorticoid steriods” (priority 1991, dated 1993).

The target in experiment [1] is T1, Wild type glucocorticoid receptor (Rattus norvegicus, UniProt P06536).
T1 construct: Thus the full length receptor was removed from the VARO vector with BamHI and inserted into the SVL vector; expressed in transfected cells; host or cells: COS-7 (cytosol)
T1 sequence (P06536 1-795): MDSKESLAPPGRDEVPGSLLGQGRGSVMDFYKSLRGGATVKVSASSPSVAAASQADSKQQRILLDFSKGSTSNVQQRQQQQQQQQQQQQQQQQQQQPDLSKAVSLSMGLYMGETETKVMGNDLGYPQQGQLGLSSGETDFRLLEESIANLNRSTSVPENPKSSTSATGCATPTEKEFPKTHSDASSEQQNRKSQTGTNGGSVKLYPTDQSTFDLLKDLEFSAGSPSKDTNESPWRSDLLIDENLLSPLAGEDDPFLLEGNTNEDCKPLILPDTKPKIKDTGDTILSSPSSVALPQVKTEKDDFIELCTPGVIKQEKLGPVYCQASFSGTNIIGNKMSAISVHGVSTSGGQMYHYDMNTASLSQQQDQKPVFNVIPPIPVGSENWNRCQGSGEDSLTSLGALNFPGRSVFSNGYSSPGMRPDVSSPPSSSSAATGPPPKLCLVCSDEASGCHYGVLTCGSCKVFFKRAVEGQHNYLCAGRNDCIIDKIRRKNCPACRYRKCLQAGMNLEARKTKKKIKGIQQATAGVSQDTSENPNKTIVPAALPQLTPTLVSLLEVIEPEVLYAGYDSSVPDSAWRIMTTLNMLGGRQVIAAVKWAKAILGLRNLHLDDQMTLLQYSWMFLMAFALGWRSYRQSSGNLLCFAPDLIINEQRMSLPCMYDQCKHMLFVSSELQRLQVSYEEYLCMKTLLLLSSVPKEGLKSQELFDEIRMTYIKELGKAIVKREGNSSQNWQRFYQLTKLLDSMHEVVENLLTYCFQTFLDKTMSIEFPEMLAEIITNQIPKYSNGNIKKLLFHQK
Description: Competition binding assay with [3H]Dex, COS-7 cytosol, wild type receptor. As to the method:
Monolayer cultures of COS-7 cells were grown in DMEM (Gibco) supplemented with 5% fetal bovine serum (FBS) (Biofluids) at 37° C. in a 5% CO2 incubator. Standard calcium phosphate transfection methods were used to introduce the wild type and mutant receptor expression vectors (pSVL) into COS-7 cells (100 mm plates [Costar] at a cell density of about 10^6 /plate were each treated with 10 μg of plasmid DNA). After ~16 hrs of incubation at 37° C. in a 5% CO2 incubator, the excess calcium phosphate and precipitate were removed by washing with phosphate buffered saline (PBS). […]
COS-7 cell cytosol containing the steroid-free receptors was prepared by cell lysis at -80° C. and centrifugation at 15,000 ×g and labeled as described for HTC cells (S. S. Simons and P. A. Miller, Biochem 23:6876-6882 (1984)). […] The specifically bound [^3 H]Dex was determined by first adding a 10% dextran-coated charcoal solution (added volume =20% of reaction solution volume) to remove free steroid and then subtracting the nonspecific binding seen in the presence of excess nonradioactive Dex. […]
The specificity of steroid binding was determined by Rodbard correction (Rodbard, 1973) of the data from a competition binding assay (S. S. Simons et al., Biochem. Biophys. Res. Comm. 86:793-800 (1979); Miller and Simons, 1988). […]

The target in experiment [2] is T2, C656G mutant glucocorticoid receptor (Rattus norvegicus, UniProt P06536, C656G/D98G).
T2 sequence (P06536 1-795 D98G/C656G): T1 sequence (P06536 1-795) with D98G, C656G
Put plainly: Competition binding assay with [3H]Dex, COS-7 cytosol, C656G receptor. More on the design: Thus the full length receptor was removed from the VARO vector with BamHI and inserted into the SVL vector; expressed in transfected cells; host or cells: COS-7 (cytosol). On the procedure: Monolayer cultures of COS-7 cells were grown in DMEM (Gibco) supplemented with 5% fetal bovine serum (FBS) (Biofluids) at 37° C. in a 5% CO2 incubator. Standard calcium phosphate transfection methods were used to introduce the wild type and mutant receptor expression vectors (pSVL) into COS-7 cells (100 mm plates [Costar] at a cell density of about 10^6 /plate were each treated with 10 μg of plasmid DNA). After ~16 hrs of incubation at 37° C. in a 5% CO2 incubator, the excess calcium phosphate and precipitate were removed by washing with phosphate buffered saline (PBS). The cells were incubated at 37° C. for another ~48 hr in DMEM/ 5% FBS and harvested by trypsinization followed by centrifugation (for 10 min at 1570 ×g) and washing 3 times with PBS. The washed cells were stored at -80° C. until used.
COS-7 cell cytosol containing the steroid-free receptors was prepared by cell lysis at -80° C. and centrifugation at 15,000 ×g and labeled as described for HTC cells (S. S. Simons and P. A. Miller, Biochem 23:6876-6882 (1984)). Briefly, 30% cytosol solutions containing ~21 mM Na2 MoO4 were prepared with three parts COS-7 cell cytosol, 2 parts pH 9.5 TAPS buffer, and 5 parts pH 8.8 TAPS buffer. The total EtOH in each experiment was kept constant and at a level of ≤1%. […] After incubation for 2.5 hr, the [^3 H]Dex-Mes-labeled solutions were quick-frozen at -78° C. for subsequent SDS-polyacrylamide gel electrophoresis analysis. The specifically bound [^3 H]Dex was determined by first adding a 10% dextran-coated charcoal solution (added volume =20% of reaction solution volume) to remove free steroid and then subtracting the nonspecific binding seen in the presence of excess nonradioactive Dex.
Duplicate aliquots (72 μl) of COS-7 cell cytosol (33.5% in pH 8.8 TAPS/27 mM Na2 MoO4 buffer) were treated with 4 μl each of [^3 H]Dex (in pH 8.8 TAPS buffer) and various concentrations of non-radioactive competing steroid (in 20% EtOH in pH 8.8 TAPS buffer) (final concentration of [^3 H]Dex ≈3 ×10^-8 M). The average specific binding was determined after 2.5 or 24 hr of incubation as described above, expressed as percentage of the non-competed control and plotted versus the log10 of the concentration of the competing steroid.
The specificity of steroid binding was determined by Rodbard correction (Rodbard, 1973) of the data from a competition binding assay (S. S. Simons et al., Biochem. Biophys. Res. Comm. 86:793-800 (1979); Miller and Simons, 1988). The initial data were collected from 2.5 hr binding assays because of concerns about the stability of the receptors over longer times.

Residue numbers refer to the chain shown, from its start.

Regarding `CC#C[C@]1(O)CC[C@H]2[C@@H]3CCC4=CC(=O)CCC4=C3[C@@H](c3ccc(N(C)C)cc3)C[C@@]21C` [RU486], the “Relative Ka of Steroid Binding to Receptor” value in experiment [1] was 3.4 ± 1.2; in experiment [2] it was 2.5 ± 0.7.
In the case of `C[C@]12CCC(=O)C=C1CC[C@@H]1[C@@H]2[C@@H](O)C[C@]2(C=O)[C@@H](C(=O)CO)CC[C@@H]12` [Aldosterone, aldosterone], the “effect of replacement of Cys-656 with glycine on relative affinity” value in experiment [2] (C656G vs wild type, compared with effect seen for C661S, 2.5 hr incubation) was “less of an effect”. Also, the “change in absolute affinity for the glucocorticoid receptor as a result of C656G mutation” value in experiment [2] (C656G vs wild type, from Table 1B and Table 2, aldosterone only "perhaps") was “decreased”.
For `C[C@]12CC[C@@H]3c4ccc(O)cc4CC[C@H]3[C@@H]1CC[C@@H]2O` [17β-Estradiol, 17β-estradiol], the entries for the “Relative Ka of Steroid Binding to Receptor” value in experiment [1] and in experiment [2] were 0.029 ± 0.006 and 0.0017 ± 0.0006, respectively.
